Measurements reported in PubChem BioAssay (NCI).
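Five compound concentrations were applied to cells in 96-well plates for 48 hours; endpoints were derived by simple linear interpolation of the resulting dose-response curve. Here, GI50 denotes the concentration required for 50% inhibition of growth. The concentration for full growth arrest is given as TGI.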

Columns and labels:
Experiment in all cases: NCI tumour cell line growth inhibition, 48 h
MCF7 breast = test system: MCF7 breast
MDA-MB-435 = test system: MDA-MB-435
MDA-N = test system: MDA-N
DLD-1 colon = test system: DLD-1 colon
DMS 114 small cell lung = test system: DMS 114 small cell lung
LXFL 529 NSCLC = test system: LXFL 529 NSCLC
RXF-631 renal = test system: RXF-631 renal
XF 498 CNS = test system: XF 498 CNS
HOP-18 NSCLC = test system: HOP-18 NSCLC

Compound	GI50 (MCF7 breast) [µM]	TGI (MCF7 breast) [µM]	GI50 (MDA-MB-435) [µM]	TGI (MDA-MB-435) [µM]	TGI (MDA-N) [µM]	TGI (DLD-1 colon) [µM]	TGI (DMS 114 small cell lung) [µM]	TGI (LXFL 529 NSCLC) [µM]	TGI (RXF-631 renal) [µM]	TGI (XF 498 CNS) [µM]	TGI (HOP-18 NSCLC) [µM]
Cc1cc(Cl)ccc1Nc1nc(C(F)(F)F)ccc1C(=O)N/N=C/c1ccc([N+](=O)[O-])cc1	1.58	6.93	2.45	7.69							
CC(C)c1cccc(C(C)C)c1NC(=O)/C(CC(=O)CC(c1ccccc1)c1c(O)c2ccccc2oc1=O)=N/O (configuration not stated)		> 100		> 100	> 100						
OC1(c2ccccc2)OC(C#Cc2ccccc2)(c2ccccc2)c2ccccc21 (configuration not stated)						11.2	9.01	19.2	13.3	19.8	
COc1cc(-c2cn(-c3ccc(Cl)c(Cl)c3)c(=O)n2C(C)=O)cc(OC)c1OC	14.7	37.7	14.2	35							
O=C(c1ccncc1)n1nc(-c2ccccc2)c(N=Nc2ccccc2[N+](=O)[O-])c1-c1ccccc1						> 100	> 100	> 100	> 100	> 100	
Cc1cc2c(cc1C)N(C(=O)CCl)CCN2C(=O)CCl	0.451	2.02	1.02	2.69							
Nc1ccccc1C#C/C=C\C#Cc1ccccc1[N+](=O)[O-]	3.32	> 100	0.402	14.1							
COC1OC(CO)C(O)C1N (configuration not stated)						> 100	> 100	> 100	> 100		> 100
O=C1NC(=S)S/C1=C(/C=C(\CC(=O)c1ccccc1)c1ccc(Cl)cc1)c1ccccc1	19.8	48.1	37.2	> 100							
Cc1sc2nc3c4ccccc4c(NCCCN(C)C)nn3c(=O)c2c1C	1.43	5.63	1.79	3.74							
CC(CCC(=O)O)C(=O)O (configuration not stated)		> 100		> 100	> 100						
CC1=C(C(=O)Nc2cccc(Cl)c2)C(c2ccccc2F)C(C(=O)Nc2cccc(Cl)c2)=C(C)N1						28.8	30.6	23.4	22.6		
Cc1ccc2nc(-c3ccc(N(C)C)c(Br)c3)cn2c1	27.8	> 100	22.6	> 100							
CN(C)CC1CCC/C1=N\O (configuration not stated)						> 100		> 100			> 100
COc1ccc(C2=NN(C=O)C(c3cccc(Nc4ccnc5cc(Cl)ccc45)c3)C2)cc1 (configuration not stated)	1.59	39.4	0.37	13.1							
C/C(CCc1ccccc1)=N\NC(N)=S						> 100	> 100	> 100	> 100	> 100	> 100
CCOc1cc(/C=N\Nc2nnc(C)n2N)c(C)cc1N(CCCl)CCCl	0.391	> 25.7	0.5	> 39.1							
O=C(O)c1ccc2c(c1)CCCC(c1ccc(Cl)cc1Cl)=C2c1ccc(O[C@H]2CCN(CCCF)C2)cc1	< 0.01	15.9	10.5	24.3							

Compound	GI50 (MCF7 breast) [µM]	TGI (MCF7 breast) [µM]	GI50 (MDA-MB-435) [µM]	TGI (MDA-MB-435) [µM]	TGI (MDA-N) [µM]	TGI (DLD-1 colon) [µM]	TGI (DMS 114 small cell lung) [µM]	TGI (LXFL 529 NSCLC) [µM]	TGI (RXF-631 renal) [µM]	TGI (XF 498 CNS) [µM]	TGI (HOP-18 NSCLC) [µM]
Cc1c(C(=O)NCCN2CCOCC2)cn2ncnc(Oc3ccc(NC(=O)Nc4ccc(Cl)c(C(F)(F)F)c4)cc3)c12			1.29	2.75							
C=C1C(=O)O[C@H]2[C@H]1CC/C(COC(=O)c1cc3cc(Cl)ccc3[nH]1)=C\CC[C@@]1(C)O[C@@H]21	0.86	2.32	1.24	2.51							
CCn1c(-c2nonc2N)nc2c(C#CC(C)(C)O)nc(OCCNC)cc21	4.9	> 25	8.58	> 25							
CCOc1cccc(/C=N/NC(=O)C(=O)Nc2cccc(C(F)(F)F)c2)c1O	2.14	> 100	4.16	> 100							
COc1ccc2cc(-c3c(-c4ccncc4)nc(-c4ccc(S(C)(=O)=O)cc4C)n3C)ccc2c1	7.09	> 18.4	9.18	> 25							
NC(=S)NNc1c([N+](=O)[O-])cnn(-c2ccccc2)c1=O						28.5	33.2	21.1		32.6	
CCOC(=O)/C=C1\CCCC12OCCO2						> 100	> 100	> 100			> 100
Fc1cc2[nH]ncc2c2c3c(c(-c4cn[nH]c4C(F)(F)F)nc12)C1CCC3C1 (configuration not stated)	0.815	5.57	1.52	7.14							
O=C1c2cc(Cl)ccc2-c2c1c1ccc([N+](=O)[O-])cc1c(=O)n2CCCBr	4.61	> 100	14.9	> 100							
COC(=O)[C@]12CCC(C)[C@H](C)[C@H]1C1=CCC3[C@@]4(C)CC[C@H](OC(C)=O)C(C)(C)C4CC[C@@]3(C)C1(C)C(O)C2 (some centres not stated)						> 100	> 100	> 100		> 100	> 100
O=C(N/N=C(/CCN1CCCC1)CC(c1ccccc1)c1c(O)c2ccccc2oc1=O)c1ccncc1 (configuration not stated)						> 100		> 100			> 100
CN(C)/N=C(/c1nc2ccc(Cl)cc2[nH]c1=O)C(O)c1ccc(C(O)/C(=N\N(C)C)c2nc3ccc(Cl)cc3[nH]c2=O)cc1 (configuration not stated)						> 100	> 100		> 100		
CNCCn1c(=O)c2cc(OC)c(OC)cc2c2ccc3cc4c(cc3c21)OCO4	0.0296	4.43	0.131	0.708							
Cc1ccc(-c2csc(NC(=O)CN3CCN(c4cc5c(cc4F)c(=O)c(C(=O)O)cn5C4CC4)CC3)n2)cc1	0.638	> 100	1.77	> 100							
C/C=C/C=C/C=C/C=C/C(=O)O						> 100	> 100	> 100	> 100		> 100
CCN(CC)C(=S)Oc1cc2oc(=O)cc(C)c2cc1Cl		> 100		> 100	> 100						
CN(C)CCCNC(=O)c1ccc2c(c1)oc1cc3ccccc3c(=O)n12	15	39.2	19.1	> 50							
NC(=O)c1cc2c3ccccc3ccn2c1-c1ccccc1	0.0597	13.5		> 100							
